Experimental data taken from publication PMC10607100, “Anticancer and Antiphytopathogenic Activity of Fluorinated Isatins and Their Water-Soluble Hydrazone Derivatives” (International Journal of Molecular Sciences, 2023).
Where two headings read alike, the source gives them in different places. Blank lines part the entries; values can stand above or below the molecule they belong to.

How the values were obtained:
[1] = system: Phytophthora cactorum VKM F-985; experiment: Mycelial radial growth inhibition; assay type: cell-based; conditions: for inhibition of growth at 1 µM / inhibition of growth at 5 µM / inhibition of growth at 15 µM / inhibition of growth / inhibition of growth at 40 µM / EC50 / inhibition of growth at 3 µM / inhibition of growth at 7 µM: Phytophthora cactorum; for inhibition of growth at 1 µM: 1 nmol/mL; for inhibition of growth at 1 µM / inhibition of growth at 5 µM / inhibition of growth at 15 µM / inhibition of growth / inhibition of growth at 40 µM / inhibition of growth at 3 µM / inhibition of growth at 7 µM: read-out: Inhibition value, I (%); for inhibition of growth at 5 µM: 5 nmol/mL; for inhibition of growth at 15 µM: 15 nmol/mL; for inhibition of growth: 27 nmol/mL; for inhibition of growth at 40 µM: 40 nmol/mL; for EC50: read-out: EC50, µg/mL at Day 5, P. cactorum; for inhibition of growth at 3 µM: 3 nmol/mL; for inhibition of growth at 7 µM: 7 nmol/mL
Procedure, shortened: (§1)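 Compounds mixed into molten GPY agar at various concentrations; centre inoculated with a 5-mm mycelial plug from 10-day cultures and incubated at 27 °C. Colony diameter compared with untreated control until control plate was covered (usually 12 days); ≥4 replicates in two experiments.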

[2] = system: Fusarium oxysporum IBPPM 543; experiment: Mycelial radial growth inhibition; assay type: cell-based; conditions: Fusarium oxysporum; for inhibition of growth at 1 µM: 1 nmol/mL; for inhibition of growth at 1 µM / inhibition of growth at 5 µM / inhibition of growth at 20 µM / inhibition of growth at 40 µM: read-out: Inhibition value, I (%); for inhibition of growth at 5 µM: 5 nmol/mL; for inhibition of growth at 20 µM: 20 nmol/mL; for inhibition of growth at 40 µM: 40 nmol/mL; for EC50: day 5, read-out: EC50, µg/mL at Day 5, F. oxysporum
Procedure, shortened: as §1

[3] = system: Pectobacterium atrosepticum 1043; experiment: Agar-well diffusion, bactericidal activity; assay type: cell-based; conditions: Pectobacterium atrosepticum, 1043, 2 mM/L
Procedure, shortened: (§2)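 Bacteria spread on agar (BP medium; GYCa for X. campestris; pH 7.2–7.4) with 6-mm wells, each receiving 150 μL compound solution. Cultures grown at 28 °C; growth-inhibition zone width measured after 36–40 h.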

Micrococcus luteus B-109 = experiment: Agar-well diffusion, bactericidal activity; assay type: cell-based; conditions: Micrococcus luteus
Procedure, shortened: as §2

[4] = system: Pectobacterium carotovorum subsp. carotovorum MI; experiment: Agar-well diffusion, bactericidal activity; assay type: cell-based; conditions: Pectobacterium carotovorum, 2 mM/L
Procedure, shortened: as §2

[5] = system: Pseudomonas fluorescens EL-2.1; experiment: Agar-well diffusion, bactericidal activity; assay type: cell-based; conditions: Pseudomonas fluorescens, EL2.1, 2 mM/L
Procedure, shortened: as §2

[6] = system: Xanthomonas campestris B-610; experiment: Agar-well diffusion, bactericidal activity; assay type: cell-based; conditions: Xanthomonas campestris
Procedure, shortened: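 Agar-well diffusion on GYCa agar (pH 7.2–7.4) seeded with bacterial suspension; 150 μL compound solution placed in 6-mm wells. Inhibition zone width measured after 36–40 h incubation.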

[7] = system: five representative phytopathogens; experiment: Agar-well diffusion, bactericidal activity over the panel of phytopathogens; assay type: cell-based; conditions: for zone of inhibition at 2000 µM: 36 h, 2 mM solutions, dependent on the test system used, read-out: inhibition zone width (mm), range over the test systems
Procedure, shortened: as §2

[8] = 120 h, age of the fungus 5 days
[9] = 168 h, age of the fungus 7 days
[10] = 216 h, age of the fungus 9 days
[11] = IBPPM543, 72 h, age of the fungus 3 days
[12] = IBPPM543, 120 h, age of the fungus 5 days
[13] = IBPPM543, 168 h, age of the fungus 7 days
[14] = IBPPM543, 216 h, age of the fungus 9 days
[15] = average of 3 experiments, read-out: width of the inhibition zone (mm), P. atrosepticum
[16] = Table S3, read-out: Inhibition zone width (mm), not less
[17] = B109, 2 mM/L, average of 3 experiments, read-out: width of the inhibition zone (mm), M. luteus
[18] = average of 3 experiments, read-out: width of the inhibition zone (mm), P. carotovorum subsp. carotovorum
[19] = average of 3 experiments, read-out: width of the inhibition zone (mm), Ps. fluorescens
[20] = B610, 2 mM/L, average of 3 experiments, read-out: width of the inhibition zone (mm), X. campestris
[21] = B610, Table S3, 2 mM/L, read-out: Inhibition zone width (mm), not less

- EC50 ([1]; 120 h, day 5): 24.7 µg/mL
- EC50 ([2]; IBPPM543, 120 h): 17.4 µg/mL
- melting point: 165 to 166 °C
SMILES: O=C(C[n+]1ccccc1)NN=C1C(=O)N(Cc2c(F)c(F)c(F)c(F)c2F)c2ccc(F)cc21.[Cl-] [Compound 5d, 1-(2-(2-(5-Fluoro-2-oxo-1-((perfluorophenyl)methyl)indolin-3-ylidene)hydrazinyl)-2-oxoethyl)pyridin-1-ium chloride]
- inhibition of growth at 1 µM ([1]; 72 h, age of the fungus 3 days): 15%
- inhibition of growth at 5 µM ([1]; 72 h, age of the fungus 3 days): 20%
- inhibition of growth at 15 µM ([1]; 72 h, age of the fungus 3 days): 26%
- inhibition of growth ([1]; 72 h, age of the fungus 3 days): 28%
- inhibition of growth at 40 µM ([1]; 72 h, age of the fungus 3 days): 35%
- inhibition of growth at 1 µM [1, 8]: 12%
- inhibition of growth at 5 µM [1, 8]: 19%
- inhibition of growth at 15 µM [1, 8]: 28%
- inhibition of growth [1, 8]: 32%
- inhibition of growth at 40 µM [1, 8]: 43%
- inhibition of growth at 1 µM [1, 9]: 10%
- inhibition of growth at 5 µM [1, 9]: 16%
- inhibition of growth at 15 µM [1, 9]: 23%
- inhibition of growth [1, 9]: 25%
- inhibition of growth at 40 µM [1, 9]: 33%
- inhibition of growth at 1 µM [1, 10]: 8%
- inhibition of growth at 5 µM [1, 10]: 11%
- inhibition of growth at 15 µM [1, 10]: 13%
- inhibition of growth [1, 10]: 22%
- inhibition of growth at 40 µM [1, 10]: 29%
- inhibition of growth at 1 µM [2, 11]: 9%
- inhibition of growth at 5 µM [2, 11]: 33%
- inhibition of growth at 20 µM [2, 11]: 35%
- inhibition of growth at 40 µM [2, 11]: 49%
- inhibition of growth at 1 µM [2, 12]: 10%
- inhibition of growth at 5 µM [2, 12]: 24%
- inhibition of growth at 20 µM [2, 12]: 37%
- inhibition of growth at 40 µM [2, 12]: 54%
- inhibition of growth at 1 µM [2, 13]: 10%
- inhibition of growth at 5 µM [2, 13]: 23%
- inhibition of growth at 20 µM [2, 13]: 32%
- inhibition of growth at 40 µM [2, 13]: 41%
- inhibition of growth at 1 µM [2, 14]: 0%
- inhibition of growth at 5 µM [2, 14]: 16%
- inhibition of growth at 20 µM [2, 14]: 18%
- inhibition of growth at 40 µM [2, 14]: 36%
- zone of inhibition at 2000 µM [3, 15]: 4 mm
- zone of inhibition at 2000 µM [3, 16]: ≥ 4 mm
- zone of inhibition at 2000 µM (Micrococcus luteus B-109; [17]): 3 mm
- zone of inhibition at 2000 µM (Micrococcus luteus B-109; B109, Table S3, 2 mM/L, read-out: Inhibition zone width (mm), not less): ≥ 3 mm
- zone of inhibition at 2000 µM [4, 18]: 4 mm
- zone of inhibition at 2000 µM [4, 16]: ≥ 4 mm
- zone of inhibition at 2000 µM [5, 19]: 2 mm
- zone of inhibition at 2000 µM [5, 16]: ≥ 2 mm
- zone of inhibition at 2000 µM [6, 20]: 4 mm
- zone of inhibition at 2000 µM [6, 21]: ≥ 4 mm
- zone of inhibition at 2000 µM [7]: 2 to 4 mm
- bactericidal activity ([7]; Table S2): moderate bactericidal activity

- EC50 ([1]; 120 h, day 5): 15 µg/mL
- EC50, µg/mL at Day 5, P. cactorum ([1]; day 5): 15.40 µg/mL
- EC50 ([2]; IBPPM543, 120 h): 14.9 µg/mL
- melting point: 172 to 173 °C
SMILES: O=C(C[n+]1ccccc1)NN=C1C(=O)N(Cc2cccc(C(F)(F)F)c2)c2ccc(F)cc21.[Cl-] [Compound 5c, 1-(2-(2-(5-Fluoro-2-oxo-1-(3-(trifluoromethyl)benzyl)indolin-3-ylidene)hydrazinyl)-2-oxoethyl)pyridin-1-ium chloride]
- antagonistic effect superior to that of N-cetylpyridinium chloride ([1]; 5 days of growth): 2.3 times
- inhibition of growth at 3 µM ([1]; 72 h, age of the fungus 3 days): 7%
- inhibition of growth at 7 µM ([1]; 72 h, age of the fungus 3 days): 13%
- inhibition of growth ([1]; 72 h, age of the fungus 3 days): 36%
- inhibition of growth at 40 µM ([1]; 72 h, age of the fungus 3 days): 55%
- inhibition of growth at 3 µM [1, 8]: 8%
- inhibition of growth at 7 µM [1, 8]: 21%
- inhibition of growth [1, 8]: 38%
- inhibition of growth at 40 µM [1, 8]: 64%
- inhibition of growth at 3 µM [1, 9]: 4%
- inhibition of growth at 7 µM [1, 9]: 14%
- inhibition of growth [1, 9]: 29%
- inhibition of growth at 40 µM [1, 9]: 42%
- inhibition of growth at 3 µM [1, 10]: 3%
- inhibition of growth at 7 µM [1, 10]: 12%
- inhibition of growth [1, 10]: 18%
- inhibition of growth at 40 µM [1, 10]: 36%
- inhibition of growth at 1 µM [2, 11]: 22%
- inhibition of growth at 5 µM [2, 11]: 40%
- inhibition of growth at 20 µM [2, 11]: 49%
- inhibition of growth at 40 µM [2, 11]: 57%
- inhibition of growth at 1 µM [2, 12]: 19%
- inhibition of growth at 5 µM [2, 12]: 36%
- inhibition of growth at 20 µM [2, 12]: 45%
- inhibition of growth at 40 µM [2, 12]: 55%
- inhibition of growth at 1 µM [2, 13]: 13%
- inhibition of growth at 5 µM [2, 13]: 28%
- inhibition of growth at 20 µM [2, 13]: 35%
- inhibition of growth at 40 µM [2, 13]: 52%
- inhibition of growth at 1 µM [2, 14]: 3%
- inhibition of growth at 20 µM [2, 14]: 21%
- inhibition of growth at 40 µM [2, 14]: 51%
- zone of inhibition at 2000 µM [3, 15]: 5 mm
- zone of inhibition at 2000 µM [3, 16]: ≥ 5 mm
- zone of inhibition at 2000 µM (Micrococcus luteus B-109; [17]): 4 mm
- zone of inhibition at 2000 µM [4, 18]: 5 mm
- zone of inhibition at 2000 µM [4, 16]: ≥ 5 mm
- zone of inhibition at 2000 µM [5, 19]: 5 mm
- zone of inhibition at 2000 µM [5, 16]: ≥ 5 mm
- zone of inhibition at 2000 µM [6, 20]: 7 mm
- zone of inhibition at 2000 µM [6, 21]: ≥ 7 mm
- zone of inhibition at 2000 µM [7]: 4 to 7 mm
